Data from US20070271620A1, “Animal model for type II diabetes mellitus and Syndrome X and methods and uses thereof” (priority 2005, published 2007).
Values joined by “and” are separate entries in the source; they are usually repeats but may differ in a detail not shown here. Identical values can stand only once. Marks after values point to notes of the source that are not given here.

Columns and labels:
[1] = test system: cross-bred pigs (Yorkshire×Landrace); assay: Induction of diabetes by streptozotocin infusion in pigs: fasting plasma glucose, food intake, urinary glucose and ketones; type: in vivo, pig
Procedure: Experimental protocols describing the management, surgical procedures, and animal care were reviewed and approved by the ASG-Lelystad Animal Care and Use Committee (Lelystad, NL). Thirty-six cross-bred pigs (Yorkshire×Landrace) of approximately 30 kg BW at surgery were used in this study. Two weeks before surgery, the pigs were housed in metabolism cages (1.15×1.35 m) and adapted to the fight/dark cycle and the feeding regimen. Lights were on and off at 05:00 and 22:00 hours, respectively. Ambient room temperature was 20° C.
STZ (Pharmacia & Upjohn Company, Kalamazoo, Mich., USA) was dissolved in saline (1 g/10 mL) and administrated to pigs via the jugular vein by a continuous infusion over 30 minutes. STZ treatment (110, 130 or 150 mg/kg) was initiated four to five hours after the morning meal. During the first three days after STZ treatment, food was offered ad libitum in order to avoid hypoglycemia (Gäbel et al., 1985; Grussner et al., 1993). Over the following four days, the food was offered still ad libitum but now from 06:00 to 7:00 and from 15:00 to 16:00 hours to evaluate the food intake capacity in relation to 24-hour urinary glucose excretion of diabetic pigs. This was done first, to be sure that diabetic pigs consume their meals at the iso-energetic level of 1045 kJ ME/kg BW^0.75 per day and second, to underline the importance of iso-energetic feeding when 24-hour urinary glucose excretion is used as one of the parameters to quantify the efficacy of metformin in diabetic pigs. On day 8 post-STZ treatment, pigs were fed on a restricted and iso-energetic level of 1045 kJ ME/kg BW^0.75 per day throughout the study.
Plasma insulin concentration was measured using a Delfia assay (test kit No. B080-1101 by Perkin Elmer Life Sciences, trust by Wallac Oy, Turku, Finland). This specific pig insulin assay was validated using pig insulin standards. Plasma and urine glucose concentrations were analyzed enzymically on an autoanalyzer of Radiometer (ABL and AML, Copenhagen, Denmark). Urine was collected in buckets containing 0.5 grams Halamid-d (sodium-p-toluenesulfonchloramide, Akzo Nobel Chemicals, Amersfoort, NL) to prevent microbial breakdown of glucose. Urine volume was registered over a given interval in order to calculate the rate of urinary glucose excretion. Urine samples (0.5 mL) were stored at −20° C. for later glucose analyses. Ketones (acetoacetic acid) were determined in fresh urine by a reagent strip test (Ketostix, Bayer Diagnostics, Mijdrecht, NL).

[2] = test system: cross-bred pigs (Yorkshire×Landrace); assay: Hyperinsulinemic euglycemic/hyperglycemic clamp in STZ diabetic pigs; type: in vivo, pig
Procedure: Protocol 2: insulin-mediated hepatic glucose production and whole body glucose uptake were studied with the hyperinsulinemic (1 or 2 mU/kg/minute) euglycemic clamp technique in combination with 6,6-^2H-glucose infusion in six normal and seven STZ (130 mg/kg) diabetic pigs.
Protocol 3: insulin-mediated whole body glucose disposal was studied with the hyperinsulinemic (2 or 8 mU/kg/minute) euglycemic clamp technique in six normal and six STZ (150 mg/kg) diabetic pigs.
Protocol 4: insulin-mediated whole body glucose disposal under influence of acute mass action of plasma glucose was studied with the hyperinsulinemic (2 mU/kg/minute), euglycemic (6 mmol/L) and hyperglycemic (22 mmol/L) clamp technique in four STZ (110 mg/kg) diabetic pigs.
After overnight fasting, at t=0 minute, insulin was administered as a prime—(17 or 34 mU/kg) continuous (1 or 2 mU/kg/minute) infusion for three hours in normal pigs. Simultaneously, a variable infusion of a 33% D-glucose solution was started and adjusted every ten minutes to maintain the plasma glucose concentration at euglycemic levels and a 6,6-^2H-glucose solution was given as a prime—(216 mg) continuous (3.6 mg/minute). Steady-state conditions were achieved within 90 minutes after initiation of the hyperinsulinemic clamp and steady-state calculations were carried out during the last hour of the clamp (t=120, 135, 150, 165 and 180 minutes). In hyperglycemic diabetic pigs, insulin was given as a prime—(34 or 136 mU/kg) continuous (2 or 8 mU/kg/minute) infusion for five hours. After reaching euglycemic levels, a variable infusion of a 33% D-glucose solution was started and adjusted every ten minutes to maintain the plasma glucose concentration at euglycemia. At t=2 hours, 6,6-^2H-glucose was administered as a prime— (216 mg) continuous (3.6 mg/minute) infusion for the last three hours of the clamp in diabetic pigs. Steady-state conditions were achieved during the last hour of the clamp and steady-state calculations were carried out at (t=240, 255, 270, 285 and 300 minutes).
Hyperinsulinemic hyperglycemic clamp experiments were carried out in diabetic pigs only. After overnight fasting, insulin was given as a prime—(34 mU/kg) continuous (2 mU/kg/minute) infusion for five hours. Simultaneously, a variable infusion of a 33% D-glucose solution was started and adjusted every ten minutes to maintain the plasma glucose concentration at hyperglycemia. Steady-state calculations were carried out during the last hour of the clamp (t=240, 255, 270, 285 and 300 minutes).
6,6-^2H-glucose kinetics: Fasting and insulin-mediated rate of appearance (Ra) of glucose was calculated by dividing the 6,6-^2H-glucose infusion rate (mg/minute) by the plasma 6,6-^2H-glucose enrichment (mg/mg %). Insulin-mediated hepatic glucose production was calculated as measured Ra glucose minus exogenous glucose infusion rate. Under hyperglycemic conditions, the rate of disappearance (Rd) of glucose, or whole body glucose uptake was corrected for urinary glucose excretion. This implies that whole body glucose uptake was calculated as measured Ra glucose minus urinary glucose excretion.

[3] = pigs, STZ 110 mg/kg, 2 mU/kg/minute clamp at euglycemia
[4] = pigs, STZ 110 mg/kg, 2 mU/kg/minute clamp at hyperglycemia
[5] = pigs, STZ 110 mg/kg, clamp at hyperglycemia
[6] = pigs, STZ 130 mg/kg, insulin clamp 2 mU/kg/minute
[7] = pigs, STZ 150 mg/kg, insulin clamp 8 mU/kg/minute

CN(N=O)C(=O)N[C@H]1C(O)O[C@H](CO)[C@@H](O)[C@@H]1O (mixture of isomers) [STZ, streptozotocin]
Pigs with overnight fasting plasma glucose <10 mmol/L (no fasting hyperglycemia) ([1]; STZ 110 mg/kg BW, one week post STZ): two of six | Diabetic state ([1]; STZ 130 mg/kg): non-ketotic, moderately dyslipidemic, developed severe insulin resistance for glucose metabolism, maintained growth without insulin therapy | Pigs with fasting hyperglycemia (>10 mmol/L) ([1]; STZ 130 mg/kg): 20 of 23 | Pigs with overnight fasting plasma glucose <10 mmol/L ([1]; STZ 130 mg/kg BW, one week post STZ): three of 23 | Overnight fasting plasma glucose ([1]; STZ 150 mg/kg BW, all six pigs, one week post STZ): > 20 mmol/L | Diabetic state ([1]; STZ 150 mg/kg, all pigs): clear hyperglycemic, hypoinsulinemic, and ketotic diabetic state | Fasting urinary glucose excretion (factual) ([1]; STZ diabetic pigs fasted overnight, urine collected for eight hours): 2.3 ± 0.2 mg/kg/min and 2.3 mg/kg/min | Ketones in urine ([1]; STZ dose of 110 and 130 mg/kg, trace = 0.5 mmol/L): no or trace | Predicted fasting urinary glucose excretion ([1]; from intercept of linear regression and average body weight): 2.6 mg/kg/min | Fasting 24-hour urinary glucose excretion (intercept of regression) ([1]; linear regression y=0.33x+141): 141 g per day | Steady-state glucose infusion rate compared to average in normal pigs ([2]; STZ 150 mg/kg, insulin 8 mU/kg/minute): approximately eight-fold lower | Fasting plasma insulin compared to normal and diabetic (1.50 mg STZ/kg) pigs ([2]; STZ 110 and 130 mg/kg, on average): two-fold higher | Steady-state glucose infusion rates compared to average in normal pigs ([2]; STZ 110 to 130 mg/kg, insulin 2 mU/kg/minute): five- to six-fold lower | Reduction in insulin action ([2]; STZ diabetic pigs): ~75% | Fasting plasma insulin, range ([2]; diabetic (150 mg STZ/kg) pigs): 0-6 mU/L | Increase of insulin-mediated whole body glucose disposal at hyperglycemia compared to euglycemia ([2]; pigs, STZ 110 mg/kg, 2 mU/kg/minute clamp): 16% | Fasting plasma glucose [2, 3]: 22.3 ± 2.1 mmol/L | Steady-state clamp glucose infusion rate (insulin-mediated whole body glucose disposal) [2, 3]: 5.1 mg/kg/min and 5.1 ± 1.0 mg/kg/min | Steady-state clamp plasma glucose [2, 3]: 6.0 ± 0.1 mmol/L | Steady-state clamp plasma insulin [2, 3]: 54 ± 16 mU/L | Time to reach euglycemia in diabetic pigs [2, 3]: 139 ± 23 min | Fasting plasma glucose [2, 4]: 23.0 ± 2.4 mmol/L | Insulin-mediated whole body glucose disposal (glucose infusion rate minus urinary glucose excretion) [2, 4]: 5.9 mg/kg/min and 5.9 ± 0.8 mg/kg/min | Steady-state clamp glucose infusion rate [2, 4]: 8.2 ± 0.8*^1) mg/kg/minute | Steady-state clamp plasma glucose [2, 4]: 22.4 ± 2.6 mmol/L | Steady-state clamp plasma insulin [2, 4]: 62 ± 19 mU/L | Fasting plasma insulin ([2]; pigs, STZ 110 mg/kg, clamp at euglycemia): 17 ± 13 mU/L | Fasting plasma insulin [2, 5]: 12 ± 5 mU/L | Fasting plasma insulin, range [2, 5]: range (3-21) mU/L | Fasting plasma insulin, range ([2]; pigs, STZ 130 mg/kg): 1-38 mU/L | Steady-state clamp glucose infusion rate [2, 6]: 5.0 ± 1.4 mg/kg/min | Steady-state clamp plasma glucose [2, 6]: 6.1 ± 0.8 mmol/L | Steady-state clamp plasma insulin [2, 6]: 45 ± 5 mU/L | Time to reach euglycemia in diabetic pigs [2, 6]: 145 ± 22 min | Fasting plasma glucose ([2]; pigs, STZ 130 mg/kg, insulin clamp 2 mU/kg/minute, with 6,6-2H-glucose infusion, mean ± SEM): 21.7 ± 1.1 mmol/L | Fasting plasma insulin ([2]; pigs, STZ 130 mg/kg, insulin clamp 2 mU/kg/minute, mean ± SEM): 9 mU/L | Fasting plasma insulin ([2]; pigs, STZ 130 mg/kg, insulin clamp 2 mU/kg/minute, mean ± SEM, listed as Streptozotocin): 9 ± 7 mU/L | Fasting plasma insulin, range ([2]; pigs, STZ 130 mg/kg, listed as Streptozotocin): range (1-38) mU/L | Fasting plasma insulin [2, 7]: 3 ± 1 mU/L | Steady-state clamp glucose infusion rate [2, 7]: 3.2 ± 1.0 mg/kg/min | Steady-state clamp plasma glucose [2, 7]: 7.5 ± 0.9 mmol/L | Steady-state clamp plasma insulin [2, 7]: 228 ± 36 mU/L | Time to reach euglycemia in diabetic pigs [2, 7]: 243 ± 21 min | Fasting plasma glucose ([2]; pigs, STZ 150 mg/kg, insulin clamp 8 mU/kg/minute, no tracer): 22.0 ± 0.8 mmol/L | Overnight fasting plasma glucose compared to normal pigs ([2]; three diabetic pig groups (STZ 110, 130 and 150 mg/kg), on average): four-fold greater
